Source: US20090247495A1, “CU[…] AND USES THEREOF” (priority 2007, published 2009)
Values after ≈ are worked out from the molar mass of the structure shown.

Experiments:
[1] = test system: Ras-GTP; test: GTPase pull-down assay (GST-Raf1-RBD) in K562 cells; assay type: cell-based, human; conditions: 50 μM, 2 minutes to 4 hours
Experimental: Lysate with 500 μg protein were used to determined the Ras-GTP content by the Glutathione S-transferase(GST)-RBD(Ras-binding domain of Raf) pull down assay. The treated and control cells were lysed in lysis buffer (25 mMTris-HCl, pH7.5, 150 mM NaCl, 5 mM MgCl2, 1% NP-40, 1 mM DTT and 5% glycerol) for 5 minutes at 4° C. Soluble cell lysates were obtained by centrifuged at 17000 g for 5 minutes. 500 μg cell lysate were collected and incubated with 80 μg GST-Raf1-RBD in 50 mM Tris-HCl, pH7.2, 150 mM NaCl, 0.5% Triton X-100, 5 mM MgCl2, 1 m MDTT and 10% glycerol for 1 hour at 4° C. The beads were washed with lysis buffer for 3 times and then resuspended and boiled in 2×sample buffer at 100° C. for 5 minutes. 25 μsupernatants were collected by centrifuged at 7200 g for 2 minutes and then resolved in 15% SDS-PAGE followed by western blot analysis using anti-Ras antibody. • 6.1.8 Laboratory-Scale Preparation of Cucurbitacin B and Cucurbitacin D
In order to further investigate if cucurbitacin B block the Stat3 activation is truly through Erk pathway in K562 cells, the ability of cucurbitacin B to inhibit the Ras/Raf/Mek/Erk pathway was determined by measuring Ras-GTP, phosphorylation of c-Raf, Mek1/2, Erk1/2 and Elk-1 in K562 cells. The cells were incubated with 50 μM cucurbitacin B for the indicated time intervals (2 minutes, 5 minutes, 10 minutes, 30 minutes, 1 hour and 4 hours). […]

[2] = test system: HepG2(liver), HT29(colon) and MCF-7(breast); test: MTT cell cytotoxicity assay, three cancer cell lines; assay type: cell-based; conditions: Homo sapiens; 48 hours; range over the three cell lines
Experimental: Three human cancer cell lines (HepG2(liver), HT29(colon) and MCF-7(breast)) were purchased from American Type Culture Collection (ATCC, Manassas, Va., USA). The cells were cultured in RPMI 1640 medium supplemented with 5% (v/v) fetal bovine serum (FBS) and 100 units/ml penicillin and streptomycin (Invitrogen Life Technologies) in a humidified 5% CO2 atmosphere at 37° C.
The cytotoxic effect of CuB and CuD on these three cancer cell lines were determined using MTT (3-[4,5-dimethylthiazol-2-yl]-2,5-diphenyl tetrazolium bromide) labeled cell cytotoxicity assay. A total of 1×10^4 cells were seeded into a 96-well plate for 24 hours prior to cucurbitacin B (CuB) or cucurbitacin D (CuD) treatment. They were then treated with different dosages of CuB/CuD for 48 hours. After the treatment, 20 μl of MTT (5 mg/ml) was added to each well and incubated for 4 hrs. Then the medium was discarded and 100 μl of dimethyl sulfoxide was added. The absorbance at 570 nm was then measured by using FLUOstar OPTIMA equipment (BMG, LABTECH GmbH, Germany). The percentage of inhibition against different dosages of CuB/CuD were plotted using the Prism software and the 50% inhibition concentration (IC50) were obtained.

[3] = test system: Human pancreatic cancer cell line Panc-1; test: Hollow fiber assay, Panc-1; assay type: in vivo, nude mice; conditions: up to 8 days
Experimental: The hollow fiber assay (HFA) was developed by the NCI as a high-throughput, preliminary in vivo screening assay for the evaluation of anti-cancer agents.
Human pancreatic cancer cell line Panc-1 were in vitro cultured inside hollow fibers for overnight, followed by in vivo implantation at s.c. sites of the nude mice. Mice were treated with vehicle control (0.5% CMC), positive control (100 mg/kg Gemcitabine) and 3 doses of cucurbitacin B (0.1 mg/kg, 0.5 mg/kg and 1.0 mg/kg) for up to 8 days. Then the fibers were excised and analyzed for cell viability by MTT assay. An additional group, the growth control group was also included in the assay. Mice in this group were sacrificed on the first day of treatment, and fibers were excised and analyzed for cell viability by MTT assay. The efficacies of cucurbitacin B against Panc-1 were expressed as the inhibited (or not) net growth percentage of the cancer cells when compared to the vehicle control group.

[4] = test system: hsp27; test: Western blot of hsp27 in HepG2, HT29 and MCF-7 cells; assay type: cell-based, human
Experimental: The human cancer cells line were serum starved for 18 hours prior to CuB/CuD treatment. Cells were incubated in a 6-well plate filled with 5 ml growth medium (RPMI with 0.2% FBS and 1% PS) at the cell density of 1×10^5 cells/ml, in the presence or absence of two different dosages of CuB/CuD for various time intervals. The drug treatment was terminated by centrifugation at 1,500 rpm for 5 minutes and the cells were rinsed twice with phosphate-buffered saline and lysed at 4° C. in a lysis buffer containing 50 mM Tris-HCl, pH7.5, 100 mM NaCl, 5 mM EDTA, 40 mM NaP2O7, 1% Triton X-100, 1 mM dithiothreitol, 200 μM Na3VO4, 100 uM phenylmethysufonyl fluoride, 2 μg/ml leupeptin, 4 μg/ml aprotinin and 0.7 μg/ml pepstatin. The insoluble protein lysate were removed by centrifugation for 10 minutes at 13,000 rpm. Fifteen micrograms of protein lysate was resolved using 10% SDS-polyacryamide gel electrophoresis (PAGE) and then subjected to western blot anaylsis. Western blots were performed with anti-Stat3, anti-Erk1/2 and anti-hsp27 antibodies specific for phosphor- and total Stat3, Erk and hsp27 proteins. The protein bands were then visualized with the Enhanced Chemiluminescence Plus (ECL Plus) detection system (Amersham). • 6.2.8.1 Inhibition Effect Cucurbitacin B/Cucurbitacin D on Stat3 Activation in HepG2 and HT29 Cells
Cells were incubated either with CuB or CuD (25 ug/ml or the dosage of IC50) for various time intervals (5, 10 or 30 mins, 1 or 4 hours). The Stat3 activation was detected by western blot.

[5] = test system: K562 cells; test: Cell morphology by microscopy, K562; assay type: cell-based, human; conditions: 48 hours
Experimental: 10^5/ml K562 cells were treated with cucurbitacin B in the presence of complete medium containing 10% FBS for 48 hours. The changes in cell morphology were visualized using Leica DMIL (Leica Microsystem). Cells were harvested and rinsed twice with ice-cold PBS (pH7.4) and a total 2.5×10^5 K562 cells were stained with 10 μl Annexin V and 10 μl propidium iodide in 100 μl 1×binding buffer for 15 minutes in dark and then subjected to apoptosis analysis with FACSCalibar Flow cytometer system (FACS Calibur BD Flow Cytometer). • 6.1.5 Flow Cytometry for Cell Cycle Analysis
After 48 hours of cucurbitacin B treatment, the cells were viewed using a Leica DMIL microscope at 400×magnification. […] However, the treated cells lost the rounded shape and shrank in size at the highest dose of cucurbitacin B used (80nM).

CC(=O)OC(C)(C)/C=C/C(=O)[C@](C)(O)C1[C@H](O)C[C@@]2(C)C3CC=C4C(C[C@H](O)C(=O)C4(C)C)[C@]3(C)C(=O)C[C@]12C (stereo partly drawn) [cucurbitacin B]
Ras-GTP activation [1]: no significant change | IC50 [2]: 0.31 to 1.6 µg/mL (≈ 0.555 to 2.86 µM) | net-growth of Panc-1 compared to the vehicle control group ([3]; 0.1 mg/kg and 0.5 mg/kg): about 40% | net cell growth of Panc-1 in hollow fibers ([3]; 0.1 mg/kg, 0.5 mg/kg and 1.0 mg/kg): potently inhibited | Hsp27 activation ([4]; HT29, 10 minutes): significant up-regulation | Hsp27 activation ([4]; HepG2, 30 minutes): significant up-regulation | Hsp27 activation ([4]; MCF-7, 4 hours): significant up-regulation | changes in cell morphology ([5]; 20 nM and 40 nM): increase in cell size | changes in cell morphology ([5]; 80 nM): shrinkage of cell size
